This is an account of results in patent US20080044904A1, “Glyphosate N-acetyltransferase (GAT) confers glyphosate resistance when expressed in plastids” (priority 2005, published 2008).

In test [1] the test system is wild-type leaf sections. The experiment in a line: Leaf section test on RMOP culture medium containing glyphosate, wild type control. It is filed as cell-based, tobacco. The conditions noted are these: RMOP medium containing 100 μm glyphosate (Glyphosate-isopropylammonium); three-week-old cultures. From the text:
(§1) Shown are three-week-old cultures initiated from Nt-pMHB125 and Nt-pMHB126 leaves and wild type control. The culture medium and general tissue culture protocols are described in references Svab and Maliga, 1993; and Lutz et al., 2006.
(§2) The ability of leaf sections or stem sections of plants to germinate and/or grow as green plants in a culture containing selective levels of herbicides is a reliable assay of glyphosate resistance (Ye et al. (2003) Plant Physiol., 133:402-410; Ye et al. (2001) Plant J., 25:261-270). Selective levels of glyphosate in the culture medium were in the range of 50 μm to 200 μm, to which plants expressing the CP4 EPSPS gene were resistant. Therefore, sections of the Nt-pMHB125, Nt-pMHB126 and Nt-pMHB127 leaves were inoculated onto RMOP medium containing 100 μm glyphosate (Glyphosate-isopropylammonium). […] Such high level of resistance was sufficient to protect the plants from glyphosate treatment under filed conditions. The new glyphosate resistance (GAT) genes, when expressed in plastids, enable efficient weed control with an environmentally friendly herbicide. Since plastids are not transmitted via pollen in most crops, the GAT gene will not be disseminated via pollen, providing an efficient containment tool (Bock, R. (2001) J. Mol. Biol., 312:425-438; Maliga, P. (2004) Annu. Rev. Plant Biol., 55:289-313).

For test [2], the system named is Nt-pMHB125 and Nt-pMHB126 leaves (tobacco cells expressing GAT in chloroplasts). As to the kind of experiment: Leaf section test on RMOP culture medium containing glyphosate, plants expressing GAT in chloroplasts. The test is classed as cell-based.
Description: as §1, §2

Molecules are shown by their SMILES.

Regarding `O=C(O)CNCP(=O)(O)O` [glyphosate, N-phosphonomethylglycine], in test [1], the “growth of wild-type leaf sections in the presence of the herbicide” value is “failed to grow and bleached”. Besides, in test [2] (100 μM glyphosate in the RMOP culture medium, three-week-old cultures from Nt-pMHB125 and Nt-pMHB126 leaves), the “resistance of tobacco cells expressing GAT in chloroplasts” value is listed as “resistant”. The “growth of Nt-pMHB125 and Nt-pMHB126 leaf sections in the presence of the herbicide” value in test [2] (RMOP medium containing 100 μm glyphosate (Glyphosate-isopropylammonium), three-week-old cultures) was “formed abundantly proliferating green calli”.
